Source: patent publication US20260327264A1, “PEPTIDE INHIBITORS OF INTERLEUKIN-23 RECEPTOR” (Zealand Pharma A/S, priority 2023, published 2026)
Like-named read-outs stand apart in the source and are kept apart here. *1 amine or outer side, *2 acyl side, *3 side chain or, on linkers, in order; H or OH if unused. Where a SMILES comes first, the peptide text is derived from it. Bridges are numbered along the chain shown (N, C = ends). [ ]: non-standard residue; d: D form. 2Nal = N[C@@H](Cc1ccc2ccccc2c1)C(=O)O; AEF = NCCOc1ccc(C[C@H](N)C(=O)O)cc1; X1 = O=C(Cc1ccc(CN[*:1])cc1)[*:2]; 3Pal = N[C@@H](Cc1cccnc1)C(=O)O; Cit = NC(=O)NCCC[C@H](N)C(=O)O; αMeL = CC(C)C[C@](C)(N)C(=O)O; β3hL = CC(C)C[C@H](N)CC(=O)O; Dab = NCC[C@H](N)C(=O)O

How the values were obtained:
human IL-23R = biological target: T1, human IL-23R (Homo sapiens, UniProt Q5VWK5); assay: Binding assay: displacement of fluorophore (TAMRA)-labelled reference compound from human IL-23R (BRET, Nluc-IL23R fusion protein membranes); conditions: for Emax: read-out: % displacement (hIL-23R binding)
T1 construct: Nanoluc luciferase (Nluc); secretion signal encoded by the plasmid (not specified); expressed in transfected cells; crude membranes used in the assay
T1 sequence (Q5VWK5 22-629): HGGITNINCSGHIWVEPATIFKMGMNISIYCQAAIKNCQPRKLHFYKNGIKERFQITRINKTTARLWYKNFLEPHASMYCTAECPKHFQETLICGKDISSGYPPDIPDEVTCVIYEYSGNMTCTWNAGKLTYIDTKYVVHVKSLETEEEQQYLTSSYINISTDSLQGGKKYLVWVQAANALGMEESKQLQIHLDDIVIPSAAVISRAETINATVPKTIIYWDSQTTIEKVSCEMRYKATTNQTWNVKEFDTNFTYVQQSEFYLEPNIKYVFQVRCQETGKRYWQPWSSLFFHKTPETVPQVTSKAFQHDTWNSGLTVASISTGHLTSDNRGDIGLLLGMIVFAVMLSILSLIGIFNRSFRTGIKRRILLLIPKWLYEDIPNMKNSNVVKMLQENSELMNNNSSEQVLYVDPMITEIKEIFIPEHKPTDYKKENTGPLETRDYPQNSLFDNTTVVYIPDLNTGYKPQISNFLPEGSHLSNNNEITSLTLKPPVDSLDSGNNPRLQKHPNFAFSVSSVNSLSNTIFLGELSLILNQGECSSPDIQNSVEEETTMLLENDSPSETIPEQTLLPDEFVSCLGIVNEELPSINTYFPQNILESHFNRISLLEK
Excerpt: The assay principle relies on Bioluminescence Resonance Energy Transfer (BRET) between a fluorophore-labelled reference compound binding to the IL-23R part of a fusion protein consisting of the IL-23R fused to a Nanoluc luciferase enzyme (Nanoluc). The Nanoluc is placed in the N-terminus in close proximity to the binding domain of the ligand. Upon close proximity between the fluorophore of the fluorophore-labelled compound and the Nanoluc of the fusion protein, bioluminescence energy generated from conversion of a Nanoluc substrate, is transferred to the fluorophore resulting in an increase in BRET. In presence of an unlabelled compound, the unlabelled compound displaces the fluorophore-labelled peptide from its binding site resulting in a decrease in BRET. The concentration for which half of the fluorophore-labelled peptide is displaced by the unlabelled compound depends on the affinity of the compound for the IL-23R, and is termed the IC50 concentration.
The plasmid also contained a gene to confer resistance for the antibiotic hygromycin. A cell line stably expressing the Nluc-IL23R fusion protein was generated by transfection of HEK293 cells with the expression plasmid and selected with hygromycin for 3 weeks in Growth medium consisting of DMEM w/Glutamax-I containing, 10% V/V FBS, 1% V/V P/S, 1 mM Sodium Pyruvate, and 1× NEAA, and 0.3 mg/mL hygromycin. The remaining cells were propagated and considered a stable expressing Nluc-IL23R fusion protein pool clone.
Cells expressing the Nluc-IL23R fusion protein were expanded in Growth medium and membranes prepared by homogenization of a cell pellet from 18 T175 flasks (4° C. in subsequent steps). The cell pellet was lysed Tris 10 mM, 7.5, 1 mM EDTA and protease inhibitors (Complete, Roche) and homogenized using a 15 mL glass-dounce by 50 strokes. The homogenate was spun at spin @1500 rpm for 10 min, the supernatant transferred to SV-34 tubes and spun at 40000 g for 20 min at 4° C. to pellet the crude membranes. The supernatant was then removed, the pellet resuspended in 5 mL buffer containing 50 mM HEPES pH 7.4, 5 mM EGTA, and 5 mM MgCl2, and homogenized. Aliquots of the resuspended and homogenized membranes containing the Nluc-IL23R fusion protein were stored at −80° C. until use.
The plate was sealed with light impermeable plate seals, and incubated on an orbital shaker 400 rpm for 2 hours at room temperature. To determine the BRET ratio, the plate seal was removed and 25 μL of the Nanoluc substrate (Promega N1572) diluted 1:500 was added to each well and incubated for 1-2 minutes on an orbital shaker at 400 rpm. […] The BRET ratio was calculated as the fluorescence from the TAMRA/nanoluc bioluminescence.
Compound potency (IC50) and maximal displacement (% displacement) were estimated by computer-aided curve fitting using a 4-parameter logistic (4PL) non-linear model. The IC50 and maximal for each compound was determined by computer-aided curve fitting using a 4-parameter logistic (4PL) non-linear model.

[1] = Peptide stability in simulated gastric fluid (SGF); type: in vitro ADME; conditions: pig, pH 1.2, pepsin, 37° C.
Method: (§1) SGF and SIF were prepared based on the United States Pharmacopeia specifications (Test Solutions, United States Pharmacopeia 35, NF 30, 2012). SGF was prepared by dissolving sodium chloride (0.2 g) in 50 mL of water. A volume of 0.7 mL of 10 M HCl was added to adjust the pH of the solution to 1.2 and the volume made up to 100 mL with water. 64 mg porcine pepsin (P7125, Sigma Aldrich) was gently dissolved into 20 mL preheated (37° C.) solution (3.2 g/L) immediately prior to the incubation. SIF was prepared by dissolving monobasic potassium phosphate (0.68 g) in 50 mL of water and adjusting the pH to 6.8 with 1 M NaOH. The volume was subsequently made up to 100 mL with water. 200 mg porcine pancreatin (P1625, Sigma Aldrich) was gently dissolved into 20 mL preheated (37° C.) solution (10 g/L) immediately prior to the incubation.
(§2) To initiate the incubations, 20 μL of peptide stock solution in 50% v/v isopropanol was deposited at the bottom of a well plate and 580 μL matrix solution was added to give a final substrate concentration of 10 μM. The incubation was performed at 37° C. with gentle shaking. 70 μL aliquots were removed at 0, 1 and 4 hours and quenched into 210 μL ice-cold precipitant solution (95% v/v acetonitrile with 0.1% v/v formic acid). After the last timepoint, the sampling plate was mixed for 10 min on a shaking table and centrifuged 10 min at 2200 g. 70 μL resulting supernatant was diluted with 150 μL water, mixed and centrifugated before analysis by liquid chromatography high resolution mass spectrometry. The zero sample was reinjected after the 4-hour sample to confirm that no drift in instrument sensitivity had occurred during the run. Percent remaining at each timepoint was calculated relative to timepoint zero based on absolute peak areas.
(§3) Compounds with a SGF stability (after 4 h) above 70% are considered highly SGF stable. Compounds with a SGF stability (after 4 h) between 30-70% (including 30% and 70%) are considered moderately SGF stable. Compounds with a SGF stability (after 4 h) below 30% are considered SGF unstable. SGF stability values above 100% are due to assay uncertainty and indicate the compound has not degraded.

[2] = Peptide stability in simulated intestinal fluid (SIF); type: in vitro ADME; conditions: pig, 10 μM
Method: as §1, §2
as §3, with “SIF” for “SGF”

[3] = tested on: IL-23 mediated STAT3 signalling (DB cells); assay: Functional inhibition of IL-23 mediated STAT3 signalling (phospho-STAT3 Tyr705) in DB cells; type: cell-based, human; conditions: for hIL-23 (pSTAT3) antagonist % inhibition: Table 3-2, maximal inhibitory response, EC80 of hIL-23
Outline: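 DB cells preincubated 15 min with inhibitor at 37° C, 5% CO2, then stimulated 90 min with hIL-23 at EC80. Lysate phospho-STAT3 measured by MSD electrochemiluminescence. Signal normalized to IL-23-alone and buffer wells; IC50 and maximal inhibition from concentration–response curves.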

[4] = simulated intestinal fluid, SIF, pH 6.8, pancreatin, 37° C.
[5] = simulated intestinal fluid, SIF, pH 6.8, pancreatin, 37° C., read-out: SIF (% remaining 4 h)
[6] = Table 3-2, EC80 of hIL-23, read-out: hIL-23 (pSTAT3) antagonist IC50
[7] = EC80 of hIL-23, read-out: IC50 (pSTAT3)

Structure (SMILES)	Emax (human IL-23R)	remaining at 1 h, 10 µM [1]	remaining at 4 h, 10 µM [1]	remaining at 1 h, 10 µM [2, 4]	IC50 [3, 6]	IC50 (human IL-23R)	IC50 [3, 7]	remaining at 4 h, 10 µM ([2]; 37 °C, simulated intestinal fluid pH 6.8 with porcine pancreatin, read-out: SIF (% after 4 h), intact peptide remaining)	remaining at 4 h, 10 µM [2, 5]	hIL-23 (pSTAT3) antagonist % inhibition [3]
CC(C)C[C@@H]1NC(=O)[C@H](Cc2c[nH]c3ccccc23)NC(=O)[C@H](Cc2c[nH]c3ccccc23)NC(=O)[C@@H]2CSCC(=O)CSC[C@H](NC(=O)[C@H]([C@@H](C)O)NC(=O)[C@@H](NC(=O)CN)CSCC(=O)CSC[C@@H](C(=O)N[C@@H](CO)C(N)=O)NC1=O)C(=O)N[C@@H](Cc1c[nH]c3ccccc13)C(=O)N[C@@H](CCC(=O)O)C(=O)N2 (single isomer, unassigned) [I1 (isomer 3), H-GC(1a)TC(2a)WEC(2a)WWLC(1a)S-[NH2], reference compound]	105%	92%	94%	0%	> 1000 nM				0%	83%
CSCC[C@H](NC(=O)[C@@H]1CSCC(=O)CSC[C@H](NC(=O)[C@@H](N)CCC(=O)O)C(=O)N[C@@H](Cc2c[nH]c3ccccc23)C(=O)N[C@@H](CC(C)C)C(=O)N[C@H]2CSCC(=O)CSC[C@H](NC(=O)[C@H](CC(N)=O)NC(=O)[C@H](CCCNC(=N)N)NC(=O)[C@H](Cc3ccc(O)cc3)NC(=O)[C@H](Cc3ccc(O)cc3)NC2=O)C(=O)N[C@@H](CC(N)=O)C(=O)N1)C(N)=O (single isomer, unassigned) [I4 (isomer 3), H-EC(4a)WLC(5a)YYRNC(5a)NC(4a)M-[NH2], reference compound]	84%	99%	99%	0%	> 1000 nM				0%	23%
CC(C)C[C@]1(C)NC(=O)[C@H](Cc2ccc3ccccc3c2)NC(=O)[C@H](Cc2ccc(OCCN)cc2)NC(=O)[C@@H]2CCNC(=O)CC[C@H](NC(=O)[C@H](CO)NC(=O)Cc3ccc(cc3)CNC(=O)CC[C@@H](C(=O)N[C@@H](CCN)C(=O)NCCCCc3cccnc3)NC1=O)C(=O)N[C@@H](Cc1c[nH]c3ccccc13)C(=O)N[C@@H](CCC(N)=O)C(=O)N2 [Compound 6, [4-Aminomethyl-phenylacetyl](1c)*SE(2c)WQ[Dab](2c)[Y(2-aminoethoxy)][2-Nal][2-Me-Leu]E(1c)[Dab]-[NH-(4-(pyridin-3-yl)butanyl)]]	103%	110%	108%	97%	3.2 nM	0.037 nM	3.2 nM			99%
CC(C)C[C@@H](CC(N)=O)NC(=O)[C@H](Cc1cccnc1)NC(=O)[C@H](CCN)NC(=O)[C@@H]1CCC(=O)NCc2ccc(cc2)CC(=O)N[C@@H](CO)C(=O)N[C@H]2CCC(=O)NCC[C@H](NC(=O)[C@H](CCC(N)=O)NC(=O)[C@H](Cc3c[nH]c4ccccc34)NC2=O)C(=O)N[C@@H](Cc2ccc(OCCN)cc2)C(=O)N[C@@H](Cc2ccc3ccccc3c2)C(=O)N[C@@](C)(CC(C)C)C(=O)N1 [Compound 11, [4-Aminomethyl-phenylacetyl](1c)*SE(2c)WQ[Dab](2c)[Y(2-aminoethoxy)][2-Nal][2-Me-Leu]E(1c)[Dab][3-(3-Pyridyl)-Ala][beta-hLeu]-[NH2]] ([X1]SEWQ[Dab][AEF][2Nal][αMeL]E[Dab][3Pal][β3hL]-NH2; lactam 3-6, N-10)	103%	98%	97%	101%	0.68 nM	0.024 nM	0.68 nM	102%		98%
CNC(=O)[C@H](Cc1cccnc1)NC(=O)[C@H](CCN)NC(=O)[C@@H]1CCC(=O)NCc2ccc(cc2)CC(=O)N[C@@H](CO)C(=O)N[C@H]2CCC(=O)NCC[C@H](NC(=O)[C@H](CCCNC(N)=O)NC(=O)[C@H](Cc3c[nH]c4ccccc34)NC2=O)C(=O)N[C@@H](Cc2ccc(OCCN)cc2)C(=O)N[C@@H](Cc2ccc3ccccc3c2)C(=O)N[C@@](C)(CC(C)C)C(=O)N1 [Compound 26, [4-Aminomethyl-phenylacetyl](1c)*SE(2c)W[Cit][Dab](2c)[Y(2-aminoethoxy)][2-Nal][2-Me-Leu]E(1c)[Dab][3-(3-Pyridyl)-Ala]-[NHMe]] ([X1]SEW[Cit][Dab][AEF][2Nal][αMeL]E[Dab][3Pal]-NHMe; lactam 3-6, N-10)		105%	99%	89%	0.042 nM					100%

Now from value to molecule, other results behind:

Emax (human IL-23R)	remaining at 1 h, 10 µM [1]	remaining at 4 h, 10 µM [1]	remaining at 1 h, 10 µM [2, 4]	IC50 [3, 6]	IC50 (human IL-23R)	IC50 [3, 7]	remaining at 4 h, 10 µM ([2]; 37 °C, simulated intestinal fluid pH 6.8 with porcine pancreatin, read-out: SIF (% after 4 h), intact peptide remaining)	Structure (SMILES)	remaining at 4 h, 10 µM [2, 5]	hIL-23 (pSTAT3) antagonist % inhibition [3]
98%		90%	94%					CCCC[C@H](NC(=O)[C@@H]1CCC(=O)NCc2ccc(cc2)CC(=O)N[C@@H](CO)C(=O)N[C@H]2CCC(=O)NCC[C@H](NC(=O)[C@H](CCC(N)=O)NC(=O)[C@H](Cc3c[nH]c4ccccc34)NC2=O)C(=O)N[C@@H](Cc2ccc(OCCN)cc2)C(=O)N[C@@H](Cc2ccc3ccccc3c2)C(=O)N[C@@](C)(CC(C)C)C(=O)N1)C(=O)N[C@@H](Cc1cccnc1)C(=O)NC [Compound 32, [4-Aminomethyl-phenylacetyl](1c)*SE(2c)WQ[Dab](2c)[Y(2-aminoethoxy)][2-Nal][2-Me-Leu]E(1c)[Nle][3-(3-Pyridyl)-Ala]-[NHMe]]		
101%	101%				0.039 nM			CNC(=O)[C@H](Cc1cccnc1)NC(=O)C1(NC(=O)[C@@H]2CCC(=O)NCc3ccc(cc3)CC(=O)N[C@@H](CO)C(=O)N[C@H]3CCC(=O)NCC[C@H](NC(=O)[C@H](CCC(N)=O)NC(=O)[C@H](Cc4c[nH]c5ccccc45)NC3=O)C(=O)N[C@@H](Cc3ccc(OCCN)cc3)C(=O)N[C@@H](Cc3ccc4ccccc4c3)C(=O)N[C@@](C)(CC(C)C)C(=O)N2)CCOCC1 [Compound 35, [4-Aminomethyl-phenylacetyl](1c)*SE(2c)WQ[Dab](2c)[Y(2-aminoethoxy)][2-Nal][2-Me-Leu]E(1c)[THP][3-(3-Pyridyl)-Ala]-[NHMe]]	96%	
100%		89%	93%					CNC(=O)[C@H](Cc1cccnc1)NC(=O)[C@H](CO)NC(=O)[C@@H]1CCC(=O)NCc2ccc(cc2)CC(=O)N[C@@H](C)C(=O)N[C@H]2CCC(=O)NCC[C@H](NC(=O)[C@H](CCC(N)=O)NC(=O)[C@H](Cc3c[nH]c4ccccc34)NC2=O)C(=O)N[C@@H](Cc2ccc(OCCN)cc2)C(=O)N[C@@H](Cc2ccc3ccccc3c2)C(=O)N[C@@](C)(CC(C)C)C(=O)N1 [Compound 40, [4-Aminomethyl-phenylacetyl](1c)*AE(2c)WQ[Dab](2c)[Y(2-aminoethoxy)][2-Nal][2-Me-Leu]E(1c)S[3-(3-Pyridyl)-Ala]-[NHMe]] ([X1]AEWQ[Dab][AEF][2Nal][αMeL]ES[3Pal]-NHMe; lactam 3-6, N-10)		
